Data: ChEMBL document CHEMBL4028804, “The Necessary Nitrogen Atom: A Versatile High-Impact Design Element for Multiparameter Optimization” (J Med Chem, 2017)

How the values were obtained:
Mu-type opioid receptor [1] = target: T1, Mu-type opioid receptor (Homo sapiens, UniProt P35372); test: Agonist activity at human mu-opioid receptor expressed in HEK293 cell membranes after 1 hr by [35S]-GTPgammaS binding assay; type: functional
Mu-type opioid receptor [2] = target: T1, Mu-type opioid receptor; test: Agonist activity at human mu-opioid receptor expressed in HEK293 cells coexpressing delta6-Galphaqi4-myr assessed as induction of intracellular calcium flux after 48 hrs by FLIPR assay; type: functional, cell-based
Mu-type opioid receptor [3] = target: T1, Mu-type opioid receptor; test: Displacement of [3H]-DAMGO from human HA-tagged mu-opioid receptor expressed in HEK293 cells after 90 mins by liquid scintillation counting analysis; type: cell-based

T1 sequence (P35372 whole entry): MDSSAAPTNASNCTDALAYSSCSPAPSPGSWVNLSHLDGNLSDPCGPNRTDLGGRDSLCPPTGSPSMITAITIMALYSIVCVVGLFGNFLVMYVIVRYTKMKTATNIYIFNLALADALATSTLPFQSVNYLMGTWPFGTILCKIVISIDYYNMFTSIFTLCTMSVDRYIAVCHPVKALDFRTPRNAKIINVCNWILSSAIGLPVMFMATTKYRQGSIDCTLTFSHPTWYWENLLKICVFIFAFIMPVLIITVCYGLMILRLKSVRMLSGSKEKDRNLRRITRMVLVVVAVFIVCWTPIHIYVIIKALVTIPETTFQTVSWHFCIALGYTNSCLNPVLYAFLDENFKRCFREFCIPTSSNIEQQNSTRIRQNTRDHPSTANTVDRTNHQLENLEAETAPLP

SMILES: O=C(N[C@@H]1CC[C@@]2(O)[C@H]3Cc4ccc(O)c5c4[C@@]2(CCN3CC2CC2)[C@H]1O5)c1ccc2ccccc2c1
- EC50 (Mu-type opioid receptor [1]): 0.3 nM
- EC50 (Mu-type opioid receptor [2]): > 1000 nM
- Ki (Mu-type opioid receptor [3]): 0.0013 nM
